Data reported in patent US6835382B2, “Ii peptide therapeutics to enhance antigen presentation” (University of Massachusetts, priority 1996, dated 2004).
Non-standard residues stand in square brackets, D forms with d. Cit = NC(=O)NCCC[C@H](N)C(=O)O; Orn = NCCC[C@H](N)C(=O)O

What was measured:
[1] = target: T1, murine E^d MHC class II allele (Mus musculus, UniProt P01904+P01915); assay: simultaneous assay, E^d allele (A20 APC, G28.C9 T hybridoma, HEL106-116; HT-2 [3H]TdR readout); assay type: cell-based; set-up: The A20 and CH27 B cell lymphoma lines express H-2^d and H-2^k alleles, respectively; endogenous in cells; host or cells: A20 B cell lymphoma (mitomycin C-treated or paraformaldehyde-fixed)
T1 sequence (P01904 26-255): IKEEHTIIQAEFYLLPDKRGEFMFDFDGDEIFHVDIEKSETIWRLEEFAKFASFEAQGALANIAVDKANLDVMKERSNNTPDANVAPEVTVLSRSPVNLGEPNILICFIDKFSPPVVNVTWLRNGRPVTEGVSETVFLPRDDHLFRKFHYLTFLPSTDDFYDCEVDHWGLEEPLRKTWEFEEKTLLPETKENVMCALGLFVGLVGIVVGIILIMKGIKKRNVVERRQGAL
T1 sequence (P01915 27-264 limits assumed): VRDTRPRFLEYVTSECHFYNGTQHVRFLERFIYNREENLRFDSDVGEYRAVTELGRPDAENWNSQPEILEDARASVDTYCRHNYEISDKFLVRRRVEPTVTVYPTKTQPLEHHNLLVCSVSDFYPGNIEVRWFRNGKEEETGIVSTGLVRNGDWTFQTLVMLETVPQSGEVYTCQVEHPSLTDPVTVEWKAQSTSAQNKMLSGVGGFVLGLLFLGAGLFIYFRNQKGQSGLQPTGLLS
Procedure, shortened: (§1)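 Antigenic peptide, mitomycin C-treated APC, effector compound and allele-restricted T hybridoma cultured together for 24 h. Supernatant then transferred to interleukin-dependent HT-2 cells. T cell activation quantified as [3H]TdR uptake by HT-2 cells.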

[2] = test system: murine E^k MHC class II allele; assay: simultaneous assay, E^k allele (CH27 APC, TPc9.1 T hybridoma, THMCC82-103 or PGCC81-104); assay type: cell-based
Procedure, shortened: as §1

[3] = Table 9, AE peptide 64 μM, supernatant 1:4
[4] = Table 16, AE peptide 4 μM, supernatant 1:8
[5] = Table 9, AE peptide 64 μM, supernatant 1:4, normalized by a factor of 5
[6] = Table 11, AE peptide 64 μM, supernatant 1:8
[7] = Table 14, AE peptide 64 μM, supernatant 1:4
[8] = Table 11, AE peptide 64 μM, supernatant 1:4
[9] = Table 1, AE peptide 16 μM (second value), 0.4 μM HEL106-116, supernatant 1:4
[10] = Table 1, AE peptide 64 μM (first value), 0.4 μM HEL106-116, supernatant 1:4
[11] = Table 5, AE peptide 64 μM, supernatant 1:4
[12] = Table 7, AE peptide 64 μM, supernatant 1:4
[13] = Table 13, AE peptide 1 μM (fourth value), supernatant 1:4
[14] = Table 13, AE peptide 4 μM (third value), supernatant 1:4
[15] = Table 13, AE peptide 16 μM (second value), supernatant 1:4
[16] = Table 13, AE peptide 64 μM (first value), supernatant 1:4
[17] = Table 15, AE peptide 16 μM, supernatant 1:4
[18] = Table 18, AE peptide 64 μM, supernatant 1:4
[19] = Table 1, AE peptide 16 μM (second value), 0.075 μM THMCC82-103, supernatant 1:2
[20] = Table 1, AE peptide 64 μM (first value), 0.075 μM THMCC82-103, supernatant 1:2
[21] = Table 5, AE peptide 64 μM, supernatant 1:4, normalized to E^d by a factor of 10
[22] = Table 7, AE peptide 64 μM, supernatant 1:4, normalized by a factor of 5
[23] = Table 2, AE peptide 64 μM, 0.05 μM HEL106-116, supernatant 1:2
[24] = Table 2, AE peptide 64 μM, 0.05 μM PGCC81-104, supernatant 1:2

## Ac-LRMKLP N-NH2 (Ac-LRMKLPN-NH2) [AE246]
[1]; [3]
  Times Baseline Response, E^d: 7.3
[1]; [4]
  Times Baseline Response, E^d: 21.8
[2]; [5]
  Times Baseline Response, E^k: 16.4
[2]; [4]
  Times Baseline Response, E^k: 1.0

## Ac-LRMKLP k-NH2 [AE166]
[1]; [6]
  Times Baseline Response, E^d: 26.4
[1]; [7]
  Times Baseline Response, E^d: 14.7
[2]; [8]
  Times Baseline Response, E^k: 3.4
[2]; [7]
  Times Baseline Response, E^k: 40.4

## Ac-LRMKLPK-NH2 [AE114]
[1]; [9]
  Times Baseline Response, E^d: 26.0
[1]; [10]
  Times Baseline Response, E^d: 39.8
[1]; Table 3, AE peptide 64 μM, supernatant 1:4
  Times Baseline Response, Ed: 10.0
[1]; [11]
  Times Baseline Response, E^d: 10.0
[1]; Table 6, AE peptide 64 μM, supernatant 1:4
  Times Baseline Response, E^d: 10.6
[1]; [12]
  Times Baseline Response, E^d: 10.6
[1]; [3]
  Times Baseline Response, E^d: 7.7
[1]; [6]
  Times Baseline Response, E^d: 24.1
[1]; Table 12, AE peptide 1 μM (fourth value), supernatant 1:2
  Times Baseline Response, E^d: 5
[1]; Table 12, AE peptide 4 μM (third value), supernatant 1:2
  Times Baseline Response, E^d: 62
[1]; Table 12, AE peptide 16 μM (second value), supernatant 1:2
  Times Baseline Response, E^d: 115
[1]; Table 12, AE peptide 64 μM (first value), supernatant 1:2
  Times Baseline Response, E^d: 103
[1]; [13]
  Times Baseline Response, E^d: 2
[1]; [14]
  Times Baseline Response, E^d: 18
[1]; [15]
  Times Baseline Response, E^d: 65
[1]; [16]
  Times Baseline Response, E^d: 48
[1]; [7]
  Times Baseline Response, E^d: 12.4
[1]; [17]
  Times Baseline Response, E^d: 228
[1]; [4]
  Times Baseline Response, E^d: 15.7
[1]; Table 17, AE peptide 4 μM, supernatant 1:4
  Times Baseline Response, E^d: 47
[1]; [18]
  Times Baseline Response, E^d: 12.4
[2]; [19]
  Times Baseline Response, E^k: 3.9
[2]; [20]
  Times Baseline Response, E^k: 15.9
[2]; Table 3, AE peptide 64 μM, supernatant 1:4, values reduced relative to E^d by a factor of 10
  Times Baseline Response, Ek: 26.9
[2]; [21]
  Times Baseline Response, E^k: 26.9
[2]; Table 6, AE peptide 64 μM, supernatant 1:4, reduced by a factor of 5
  Times Baseline Response, E^k: 10.7
[2]; [22]
  Times Baseline Response, E^k: 10.7
[2]; [5]
  Times Baseline Response, E^k: 13.2
[2]; [8]
  Times Baseline Response, E^k: 5.2
[2]; Table 12, AE peptide 1 μM (fourth value), supernatant 1:4
  Times Baseline Response, E^k: 2.1
[2]; Table 12, AE peptide 4 μM (third value), supernatant 1:4
  Times Baseline Response, E^k: 4.9
[2]; Table 12, AE peptide 16 μM (second value), supernatant 1:4
  Times Baseline Response, E^k: 19.3
[2]; Table 12, AE peptide 64 μM (first value), supernatant 1:4
  Times Baseline Response, E^k: 51.5
[2]; [13]
  Times Baseline Response, E^k: 2.1
[2]; [14]
  Times Baseline Response, E^k: 4.9
[2]; [15]
  Times Baseline Response, E^k: 19.3
[2]; [16]
  Times Baseline Response, E^k: 51.5
[2]; [7]
  Times Baseline Response, E^k: 40.3
[2]; [17]
  Times Baseline Response, E^k: 18.2
[2]; [4]
  Times Baseline Response, E^k: 1.2
[2]; Table 17, AE peptide 64 μM, supernatant 1:4
  Times Baseline Response, E^k: 2.8
[2]; [18]
  Times Baseline Response, E^k: 40.3

## Ac-LRMKLPKPPK-NH2 [AE168]
[1]; [10]
  Times Baseline Response, E^d: 16.7, n.d.
[2]; [20]
  Times Baseline Response, E^k: 4.7, n.d.

## Ac-LRMKLPKPPP-NH2 [AE167]
[1]; [10]
  Times Baseline Response, E^d: 20.1, n.d.
[2]; [20]
  Times Baseline Response, E^k: 3.4, n.d.

## Ac-LRMKLPKSAK-NH2 [AE110]
[1]; [9]
  Times Baseline Response, E^d: 27.8
[1]; [10]
  Times Baseline Response, E^d: 47.1
[1]; [23]
  Times Baseline Response, E^d: 23.8
[2]; [19]
  Times Baseline Response, E^k: 2.1
[2]; [20]
  Times Baseline Response, E^k: 7.6
[2]; [24]
  Times Baseline Response, E^k: 19.1

## Ac-LRMKLP[Cit]-NH2 [AE241]
[1]; [3]
  Times Baseline Response, E^d: 3.4
[1]; [4]
  Times Baseline Response, E^d: 7.1
[2]; [5]
  Times Baseline Response, E^k: 12.2
[2]; [4]
  Times Baseline Response, E^k: 1.0

## Ac-LRMK[Orn]PK-NH2 [AE225]
[1]; [12]
  Times Baseline Response, E^d: 10.4
[2]; [22]
  Times Baseline Response, E^k: 13.9

## Ac-LRNKNPF-NH2 [AE348]
[1]; [17]
  Times Baseline Response, E^d: 13.1
[2]; [17]
  Times Baseline Response, E^k: 6.3

## Ac-LRNKNPK-NH2 [AE349]
[1]; [17]
  Times Baseline Response, E^d: 25.3
[2]; [17]
  Times Baseline Response, E^k: 6.1

## Ac-LR[Orn]KLPK-NH2 [AE195]
[1]; [11]
  Times Baseline Response, E^d: 12.1
[1]; [17]
  Times Baseline Response, E^d: 34.3
[2]; [21]
  Times Baseline Response, E^k: 12.1
[2]; [17]
  Times Baseline Response, E^k: 19.8

## Ac-L[Cit]MKNPK-NH2 [AE342]
[1]; [17]
  Times Baseline Response, E^d: 2.3
[2]; [17]
  Times Baseline Response, E^k: 5.4

## Ac-L[Cit]NKLPK-NH2 [AE343]
[1]; [17]
  Times Baseline Response, E^d: 1.2
[2]; [17]
  Times Baseline Response, E^k: 2.9

## Ac-NLQLDSLRMKLPKSAK-NH2 [AE150]
[1]; [23]
  Times Baseline Response, E^d: 3.2
[2]; [24]
  Times Baseline Response, E^k: 0.8

## Ac-QLDSLRMKLPKSAK-NH2 [AE152]
[1]; [23]
  Times Baseline Response, E^d: 2.3
[2]; [24]
  Times Baseline Response, E^k: 0.4
[2]; Tables 2 and 18
  activity in simultaneous assay on E^k, in words: inhibition

## Ac-SLRMKLPKSAK-NH2 [AE155]
[1]; [23]
  Times Baseline Response, E^d: 23.4
[2]; [24]
  Times Baseline Response, E^k: 8.4
